Data from patent US11739305B2, “Sialyltransferase variants having neosialidase activity” (The Regents of the University of California, priority 2017, dated 2023).

Biological target: T1, Pd2,6ST S232L/T356S/W361F (Photobacterium damselae, UniProt O66375, S232L/T356S/W361F)
T1 construct: (Δ15Pd2, 6ST); His6 tag with thrombin site ([…]) (N); made in house; host or cells: E. coli BL21(DE3)
Assay: Linkage specificity assays (relative sialidase activity towards sialosides, HPLC)
Assay type: biochemical
Settings: for Relative sialidase activity: of Pd2,6ST S232L/T356S/W361F towards the sialoside, 1 mM substrate, 0.5 mM CMP, pH 6.0, 37° C., 30 minutes, relative to compound 2
Experimental: Reactions were performed in duplicate at 37° C. for 30 minutes in MES buffer (100 mM, pH 6.0), MgCl2 (10 mM), CMP (0.5 mM), and 1 mM substrate. Enzyme concentrations were 0.030 μM for 2, 0.30 μM for 7, 3.0 μM 6, and 30.0 μM for 3-5. These conditions provided testing at initial rates (1.2-24% yield) for each substrate. Reactions were stopped by adding an equal volume of pre-chilled methanol. The mixtures were incubated on ice for 30 minutes and centrifuged at 13,000 rpm for 5 minutes. Supernatants were analyzed with an Infinity 1290-II HPLC equipped with a UV-Vis detector (Agilent Technologies, CA). The HPLC procedure utilized a ZORBAX Eclipse Plus C18 Rapid Resolution HD 1.8 μm particle 2.1×50 mm column (Agilent Technologies, CA), an isocratic flow of 1 mL min′ for a 9% acetonitrile and 91% aqueous solution containing 0.1% TFA, and an injection volume of 2 μL. The para-nitrophenyl absorbance signal was monitored at 315 nm.

[1] = cleavage by Pd2,6ST S232L/T356S/W361F

CC(=O)NC1C(O)CC(OC(CO)C(O)C2OC(OC3C(O)C(CO)OC(Oc4ccc([N+](=O)[O-])cc4)C3O)(C(=O)O)CC(O)C2NC(C)=O)(C(=O)O)OC1C(O)C(O)CO (stereo not shown) [Compound 4, Neu5Acα2-8Neu5Acα2-3GalβpNP]
neosialidase activity toward the sialoside, in words [1]: not detected | Relative sialidase activity: 3.3 × 10^−3

CC(=O)NC1C(Oc2ccc([N+](=O)[O-])cc2)OC(COC2(C(=O)O)CC(O)C(NC(C)=O)C(C(O)C(O)CO)O2)C(O)C1O (stereo not shown) [Compound 7, Neu5Acα2-6GalNAcβpNP]
neosialidase activity toward the sialoside, in words [1]: higher | Relative sialidase activity: 1.9

O=C(CO)NC1C(O)CC(OCC2OC(Oc3ccc([N+](=O)[O-])cc3)C(O)C(O)C2O)(C(=O)O)OC1C(O)C(O)CO (stereo not shown) [Compound 6, Neu5Gcα2-6GalβpNP]
cleavage rate as percent of the rate of Neu5Acα2-6GalβpNP (2) [1]: approximately 12% | Relative sialidase activity: 1.2 × 10^−1

O=C(O)C1(OCC2OC(Oc3ccc([N+](=O)[O-])cc3)C(O)C(O)C2O)CC(O)C(O)C(C(O)C(O)CO)O1 (stereo not shown) [Compound 5, Kdnα2-6GalβpNP]
cleavage rate as percent of the rate of Neu5Acα2-6GalβpNP (2) [1]: 0.1% | neosialidase activity toward the sialoside, in words [1]: not a suitable substrate | Relative sialidase activity: 9.8 × 10^−4

CC(=O)N[C@H]1[C@H]([C@H](O)[C@H](O)CO)OC(OC[C@H]2O[C@@H](Oc3ccc([N+](=O)[O-])cc3)[C@H](O)[C@@H](O)[C@H]2O)(C(=O)O)C[C@@H]1O (stereo partly shown) [Compound 2, Neu5Acα2-6GalβpNP]
neosialidase activity toward the sialoside, in words [1]: suitable substrate | Relative sialidase activity: 1.0

CC(=O)N[C@H]1[C@H]([C@H](O)[C@H](O)CO)OC(O[C@H]2[C@@H](O)[C@@H](CO)O[C@@H](Oc3ccc([N+](=O)[O-])cc3)[C@@H]2O)(C(=O)O)C[C@@H]1O (stereo partly shown) [Compound 3, Neu5Acα2-3GalβpNP]
activity lower than toward Neu5Acα2-6GalβpNP (2) [1]: ~400 fold | Relative sialidase activity: 2.5 × 10^−3
